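Grown in 96-well plates, cells were treated for 48 hours with each compound at five concentrations. Insufficient inhibition: endpoint recorded as highest concentration tested. The concentration for 50% growth inhibition is given as GI50.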 Activity calls are given as the source filed them. Cut-off read from the data, not from the text of the source: active = GI50 up to about 1.1 µM and inactive = higher.
Experiments:
Assay in all cases: NCI-60 cell line screen, 48 h
CCRF-CEM = system: CCRF-CEM
MDA-MB-435 = system: MDA-MB-435
OVCAR-3 = system: OVCAR-3
MCF7 = system: MCF7
BT-549 = system: BT-549
NCI/ADR-RES = system: NCI/ADR-RES
OVCAR-4 = system: OVCAR-4
786-0 = system: 786-0
NCI-H23 = system: NCI-H23
MDA-N = system: MDA-N
HT-29 = system: HT-29
U-251 = system: U-251
OVCAR-5 = system: OVCAR-5
SF-539 = system: SF-539
EKVX = system: EKVX
NCI-H460 = system: NCI-H460
SR = system: SR
A498 = system: A498
SK-MEL-2 = system: SK-MEL-2
IGROV-1 = system: IGROV-1
NCI-H522 = system: NCI-H522
RXF 393 = system: RXF 393
KM12 = system: KM12
COLO 205 = system: COLO 205
A549 = system: A549
HOP-92 = system: HOP-92
HCT-116 = system: HCT-116
SF-295 = system: SF-295
TK-10 = system: TK-10
ACHN = system: ACHN
SK-MEL-5 = system: SK-MEL-5
HOP-62 = system: HOP-62
NCI-H226 = system: NCI-H226
M14 = system: M14
SK-MEL-28 = system: SK-MEL-28
Hs-578T = system: Hs-578T
PC-3 = system: PC-3
UACC-257 = system: UACC-257
Malme-3M = system: Malme-3M
DU-145 = system: DU-145
SF-268 = system: SF-268
SNB-19 = system: SNB-19
HCT-15 = system: HCT-15
MOLT-4 = system: MOLT-4
T47D = system: T47D
CAKI-1 = system: CAKI-1
SW-620 = system: SW-620
OVCAR-8 = system: OVCAR-8
LOX IMVI = system: LOX IMVI
SK-OV-3 = system: SK-OV-3
SN12C = system: SN12C
UACC-62 = system: UACC-62
HL-60 = system: HL-60
UO-31 = system: UO-31
SNB-75 = system: SNB-75
RPMI-8226 = system: RPMI-8226
K562 = system: K562
MDA-MB-231 = system: MDA-MB-231

How did the GI50 (CCRF-CEM) turn out when `CCOC(=O)Cc1ccc(Nc2nc3ccccc3nc2C(=O)OCC)cc1` was run?
Its GI50 is > 100 µM (inactive).

And the GI50 (MDA-MB-435)?
The GI50 was > 100 µM (inactive).

What about the GI50 (OVCAR-3) of the same compound?
Its GI50 is > 100 µM (inactive).

And the GI50 (MCF7)?
Its GI50 is 61.7 µM (inactive).

What about the GI50 (BT-549) of the same compound?
The GI50 was 26.2 µM (inactive).

What about the GI50 (NCI/ADR-RES) of the same compound?
The GI50 was 50.7 µM (inactive).

And the GI50 (OVCAR-4)?
The GI50 was 77.1 µM (inactive).

And the GI50 (786-0)?
The GI50 was 34 µM (inactive).

What about the GI50 (NCI-H23) of the same compound?
Its GI50 is 47.5 µM (inactive).

What about the GI50 (MDA-N) of the same compound?
The GI50 was > 100 µM (inactive).

What about the GI50 (HT-29) of the same compound?
The GI50 was > 100 µM (inactive).

And the GI50 (U-251)?
The GI50 was 51.3 µM (inactive).

What about the GI50 (OVCAR-5) of the same compound?
Its GI50 is > 100 µM (inactive).

What about the GI50 (SF-539) of the same compound?
The GI50 was 37.1 µM (inactive).

What about the GI50 (EKVX) of the same compound?
The GI50 was 38.4 µM (inactive).

What about the GI50 (NCI-H460) of the same compound?
The GI50 was 44.6 µM (inactive).

What about the GI50 (SR) of the same compound?
Its GI50 is > 100 µM (inactive).

What about the GI50 (A498) of the same compound?
The GI50 was 20.7 µM (inactive).

What about the GI50 (SK-MEL-2) of the same compound?
Its GI50 is 94 µM (inactive).

What about the GI50 (IGROV-1) of the same compound?
Its GI50 is 57.5 µM (inactive).

What about the GI50 (NCI-H522) of the same compound?
Its GI50 is 89.9 µM (inactive).

And the GI50 (RXF 393)?
The GI50 was 24 µM (inactive).

And the GI50 (KM12)?
Its GI50 is > 100 µM (inactive).

And the GI50 (COLO 205)?
The GI50 was > 100 µM (inactive).

What about the GI50 (A549) of the same compound?
Its GI50 is 35.2 µM (inactive).

And the GI50 (HOP-92)?
The GI50 was 43.8 µM (inactive).

And the GI50 (HCT-116)?
Its GI50 is > 100 µM (inactive).

And the GI50 (SF-295)?
The GI50 was 32.9 µM (inactive).

And the GI50 (TK-10)?
The GI50 was 37.1 µM (inactive).

And the GI50 (ACHN)?
Its GI50 is 53.5 µM (inactive).

What about the GI50 (SK-MEL-5) of the same compound?
Its GI50 is 46.1 µM (inactive).

And the GI50 (HOP-62)?
Its GI50 is 38.3 µM (inactive).

And the GI50 (NCI-H226)?
Its GI50 is 4.8 µM (inactive).

And the GI50 (M14)?
Its GI50 is > 100 µM (inactive).

And the GI50 (SK-MEL-28)?
The GI50 was > 100 µM (inactive).

What about the GI50 (Hs-578T) of the same compound?
The GI50 was 34.5 µM (inactive).

What about the GI50 (PC-3) of the same compound?
Its GI50 is 62.5 µM (inactive).

And the GI50 (UACC-257)?
Its GI50 is > 100 µM (inactive).

What about the GI50 (Malme-3M) of the same compound?
Its GI50 is 52.1 µM (inactive).

And the GI50 (DU-145)?
The GI50 was 95.9 µM (inactive).

What about the GI50 (SF-268) of the same compound?
The GI50 was 53.7 µM (inactive).

And the GI50 (SNB-19)?
Its GI50 is 11.2 µM (inactive).

What about the GI50 (HCT-15) of the same compound?
Its GI50 is over 100 µM.

What about the GI50 (MOLT-4) of the same compound?
The GI50 was > 100 µM (inactive).

What about the GI50 (T47D) of the same compound?
Its GI50 is 36.6 µM (inactive).

What about the GI50 (CAKI-1) of the same compound?
The GI50 was 83.6 µM (inactive).

And the GI50 (SW-620)?
The GI50 was > 100 µM (inactive).

And the GI50 (OVCAR-8)?
The GI50 was 56.1 µM (inactive).

What about the GI50 (LOX IMVI) of the same compound?
The GI50 was > 100 µM (inactive).

And the GI50 (SK-OV-3)?
Its GI50 is 54.1 µM (inactive).

And the GI50 (SN12C)?
The GI50 was > 100 µM (inactive).

What about the GI50 (UACC-62) of the same compound?
Its GI50 is 45.2 µM (inactive).

And the GI50 (HL-60)?
The GI50 was > 100 µM (inactive).

What about the GI50 (UO-31) of the same compound?
Its GI50 is 14.5 µM (inactive).

What about the GI50 (SNB-75) of the same compound?
The GI50 was 17.9 µM (inactive).

For `CCOC(=O)c1nc2ccc(C(F)(F)F)cc2nc1Oc1cc(OC)c(OC)c(OC)c1`, which GI50 (CCRF-CEM) is on record?
The GI50 was > 10 µM (inactive).

What about the GI50 (MDA-MB-435) of the same compound?
The GI50 was > 100 µM (inactive).

What about the GI50 (OVCAR-3) of the same compound?
Its GI50 is > 100 µM (inactive).

And the GI50 (MCF7)?
Its GI50 is > 100 µM (inactive).

And the GI50 (BT-549)?
Its GI50 is > 100 µM (inactive).

What about the GI50 (NCI/ADR-RES) of the same compound?
Its GI50 is 30.9 µM (inactive).

What about the GI50 (OVCAR-4) of the same compound?
Its GI50 is 2.64 µM (inactive).

And the GI50 (786-0)?
Its GI50 is 13.5 µM (inactive).

What about the GI50 (MDA-N) of the same compound?
The GI50 was > 100 µM (inactive).

What about the GI50 (RPMI-8226) of the same compound?
Its GI50 is > 100 µM (inactive).

What about the GI50 (HT-29) of the same compound?
The GI50 was 78.2 µM (inactive).

What about the GI50 (U-251) of the same compound?
Its GI50 is 55.6 µM (inactive).

And the GI50 (OVCAR-5)?
Its GI50 is 97.9 µM (inactive).

What about the GI50 (SF-539) of the same compound?
Its GI50 is 62.2 µM (inactive).

What about the GI50 (EKVX) of the same compound?
Its GI50 is 35.3 µM (inactive).

And the GI50 (NCI-H460)?
Its GI50 is 42.5 µM (inactive).

And the GI50 (A498)?
Its GI50 is > 100 µM (inactive).

What about the GI50 (SK-MEL-2) of the same compound?
The GI50 was > 100 µM (inactive).

And the GI50 (IGROV-1)?
Its GI50 is 51.1 µM (inactive).

What about the GI50 (K562) of the same compound?
The GI50 was 36.7 µM (inactive).

What about the GI50 (RXF 393) of the same compound?
Its GI50 is 28.7 µM (inactive).

And the GI50 (KM12)?
Its GI50 is 40.2 µM (inactive).

What about the GI50 (COLO 205) of the same compound?
Its GI50 is 17.7 µM (inactive).

And the GI50 (A549)?
The GI50 was 53.7 µM (inactive).

What about the GI50 (HOP-92) of the same compound?
The GI50 was 14.5 µM (inactive).

What about the GI50 (HCT-116) of the same compound?
The GI50 was 50.9 µM (inactive).

What about the GI50 (SF-295) of the same compound?
The GI50 was 97.3 µM (inactive).

And the GI50 (TK-10)?
The GI50 was 75.3 µM (inactive).

And the GI50 (ACHN)?
Its GI50 is 8.17 µM (inactive).

And the GI50 (SK-MEL-5)?
The GI50 was 23.1 µM (inactive).

And the GI50 (HOP-62)?
Its GI50 is 25.6 µM (inactive).

What about the GI50 (NCI-H226) of the same compound?
Its GI50 is 27.2 µM (inactive).

And the GI50 (M14)?
Its GI50 is > 100 µM (inactive).

What about the GI50 (SK-MEL-28) of the same compound?
Its GI50 is > 100 µM (inactive).

And the GI50 (Hs-578T)?
The GI50 was 16.8 µM (inactive).

And the GI50 (PC-3)?
Its GI50 is > 100 µM (inactive).

What about the GI50 (UACC-257) of the same compound?
Its GI50 is 40.4 µM (inactive).

What about the GI50 (MDA-MB-231) of the same compound?
Its GI50 is 87.7 µM (inactive).

And the GI50 (Malme-3M)?
Its GI50 is 35.3 µM (inactive).

And the GI50 (DU-145)?
Its GI50 is 46.8 µM (inactive).

And the GI50 (SF-268)?
Its GI50 is 35.6 µM (inactive).

What about the GI50 (SNB-19) of the same compound?
The GI50 was 27.8 µM (inactive).

What about the GI50 (HCT-15) of the same compound?
Its GI50 is 72.9 µM.

And the GI50 (MOLT-4)?
Its GI50 is > 100 µM (inactive).

And the GI50 (T47D)?
Its GI50 is > 100 µM (inactive).

What about the GI50 (SW-620) of the same compound?
Its GI50 is 47.8 µM (inactive).

What about the GI50 (OVCAR-8) of the same compound?
The GI50 was 38.3 µM (inactive).

And the GI50 (LOX IMVI)?
Its GI50 is > 100 µM (inactive).

What about the GI50 (SK-OV-3) of the same compound?
Its GI50 is > 100 µM (inactive).

And the GI50 (SN12C)?
The GI50 was > 100 µM (inactive).

And the GI50 (UACC-62)?
The GI50 was 94.8 µM (inactive).

What about the GI50 (HL-60) of the same compound?
The GI50 was > 100 µM (inactive).

And the GI50 (UO-31)?
Its GI50 is > 100 µM (inactive).

And the GI50 (SNB-75)?
Its GI50 is 19.5 µM (inactive).

Reference: ChEMBL document CHEMBL1201862, “PubChem BioAssay data set” (2004)
